From PubChem BioAssay AID248 (DTP/NCI, 2004)
Values joined by “and” are separate entries in the source; they are usually repeats but may differ in a detail not shown here. Identical values can stand only once. Toxic doses and inconclusive results are not listed. Cut-off read from the data, not from the text of the source: active = T/C of 150% or more; inactive = T/C below 125%.

Test system: L1210 leukemia ip in BDF1 mice, survival T/C
Experiment: NCI In Vivo Anticancer Drug Screen. Data for tumor model L1210 Leukemia (intraperitoneal) in B6D2F1 (BDF1) mice
Details: endpoint: mean survival time, higher = longer survival
Procedure, shortened: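 Ratio derived from survival: compound-dosed mice over vehicle-dosed mice, all bearing a transplantable tumor.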

[1] = dose: 100.0 mg/kg/injection, schedule: Q01DX001 (ip), vehicle: saline
[2] = dose: 200.0 mg/kg/injection, schedule: Q01DX001 (ip), vehicle: saline
[3] = dose: 400.0 mg/kg/injection, schedule: Q01DX001 (ip), vehicle: saline
[4] = dose: 100.0 mg/kg/injection, schedule: Q01DX009 (ip), vehicle: saline with Tween-80
[5] = dose: 200.0 mg/kg/injection, schedule: Q01DX009 (ip), vehicle: saline with Tween-80
[6] = dose: 100.0 mg/kg/injection, schedule: Q04DX003 (ip), vehicle: saline with Tween-80
[7] = dose: 200.0 mg/kg/injection, schedule: Q04DX003 (ip), vehicle: saline with Tween-80
[8] = dose: 400.0 mg/kg/injection, schedule: Q04DX003 (ip), vehicle: saline with Tween-80

Measured: T/C

CCN1C=C/C(=C\C=C/c2cc[n+](CC)c3ccccc23)c2ccccc21
inactive: dose: 0.05 mg/kg/injection, schedule: Q01DX Z (ip), vehicle: methylcellulose (MC) 96 % of control | dose: 0.06 mg/kg/injection, schedule: Q01DX Z (ip), vehicle: methylcellulose (MC) 106 % of control and 121 % of control | dose: 0.08 mg/kg/injection, schedule: Q01DX Z (ip), vehicle: methylcellulose (MC) 104 % of control | dose: 0.1 mg/kg/injection, schedule: Q01DX Z (ip), vehicle: methylcellulose (MC) 107 % of control | dose: 0.11 mg/kg/injection, schedule: Q01DX Z (ip), vehicle: methylcellulose (MC) 121 % of control | dose: 0.15 mg/kg/injection, schedule: Q01DX Z (ip), vehicle: methylcellulose (MC) 119 % of control | dose: 0.3 mg/kg/injection, schedule: Q01DX Z (ip), vehicle: methylcellulose (MC) 113 % of control and 120 % of control and 121 % of control | dose: 0.33 mg/kg/injection, schedule: Q01DX009 (ip), vehicle: saline with Tween-80 118 % of control | dose: 0.33 mg/kg/injection, schedule: Q03HX024 (ip), vehicle: saline with Tween-80 109 % of control | dose: 0.4 mg/kg/injection, schedule: Q01DX Z (ip), vehicle: methylcellulose (MC) 112 % of control | dose: 0.44 mg/kg/injection, schedule: Q01DX009 (ip), vehicle: saline with Tween-80 121 % of control | dose: 0.48 mg/kg/injection, schedule: Q01DX009 (ip), vehicle: saline with Tween-80 112 % of control | dose: 0.5 mg/kg/injection, schedule: Q01DX009 (ip), vehicle: saline 101 % of control | dose: 0.5 mg/kg/injection, schedule: Q04DX003 (ip), vehicle: saline sonified 107 % of control | dose: 0.67 mg/kg/injection, schedule: Q01DX001 (ip), vehicle: saline with Tween-80 105 % of control | dose: 0.67 mg/kg/injection, schedule: Q04DX003 (ip), vehicle: saline with Tween-80 105 % of control | dose: 0.7 mg/kg/injection, schedule: Q01DX Z (ip), vehicle: methylcellulose (MC) 96 % of control | dose: 0.74 mg/kg/injection, schedule: Q01DX009 (ip), vehicle: saline with Tween-80 114 % of control and 118 % of control | dose: 1.0 mg/kg/injection, schedule: Q01DX001 (ip), vehicle: saline with Tween-80 105 % of control | dose: 1.0 mg/kg/injection, schedule: Q01DX009 (ip), vehicle: saline 107 % of control | dose: 1.0 mg/kg/injection, schedule: Q01DX Z (ip), vehicle: methylcellulose (MC) 100 % of control | dose: 1.0 mg/kg/injection, schedule: Q04DX003 (ip), vehicle: saline sonified 110 % of control | dose: 1.1 mg/kg/injection, schedule: Q01DX009 (ip), vehicle: saline with Tween-80 105 % of control | dose: 1.5 mg/kg/injection, schedule: Q01DX001 (ip), vehicle: saline with Tween-80 112 % of control | dose: 1.5 mg/kg/injection, schedule: Q01DX Z (ip), vehicle: methylcellulose (MC) 108 % of control | dose: 1.5 mg/kg/injection, schedule: Q04DX003 (ip), vehicle: saline with Tween-80 113 % of control | dose: 2.0 mg/kg/injection, schedule: Q04DX003 (ip), vehicle: saline sonified 118 % of control | dose: 2.2 mg/kg/injection, schedule: Q01DX001 (ip), vehicle: saline with Tween-80 110 % of control | dose: 2.2 mg/kg/injection, schedule: Q04DX003 (ip), vehicle: saline with Tween-80 98 % of control | dose: 3.3 mg/kg/injection, schedule: Q01DX001 (ip), vehicle: saline with Tween-80 100 % of control and 88 % of control | dose: 7.4 mg/kg/injection, schedule: Q01DX001 (ip), vehicle: saline with Tween-80 105 % of control | dose: 67.0 micrograms/kg/injection, schedule: Q03HX024 (ip), vehicle: saline with Tween-80 102 % of control | dose: 100.0 micrograms/kg/injection, schedule: Q03HX024 (ip), vehicle: saline with Tween-80 101 % of control | dose: 150.0 micrograms/kg/injection, schedule: Q03HX024 (ip), vehicle: saline with Tween-80 104 % of control | dose: 220.0 micrograms/kg/injection, schedule: Q03HX024 (ip), vehicle: saline with Tween-80 97 % of control | dose: 330.0 micrograms/kg/injection, schedule: Q03HX024 (ip), vehicle: saline with Tween-80 102 % of control

CNC(=O)Oc1ccc([N+](C)(C)C)cc1
inactive: dose: 9.5 mg/kg/injection, schedule: Q01DX001 (ip), vehicle: saline 109 % of control | dose: 19.0 mg/kg/injection, schedule: Q01DX001 (ip), vehicle: saline 100 % of control

N#CC(C#N)=Cc1csc2ccccc12
inactive: [1] 93 % of control | [2] 102 % of control | [3] 102 % of control

S=C1N/N=C/NN/C=N/N1
inactive: dose: 10.0 mg/kg/injection, schedule: Q01DX001 (ip), vehicle: saline 105 % of control | dose: 20.0 mg/kg/injection, schedule: Q01DX001 (ip), vehicle: saline 94 % of control

C=CCN1C(=O)C(CCCCCCCCCCCC)C(=O)NC1=S (stereo not drawn)
inactive: dose: 75.0 mg/kg/injection, schedule: Q01DX001 (ip), vehicle: other 101 % of control | dose: 150.0 mg/kg/injection, schedule: Q01DX001 (ip), vehicle: other 95 % of control | dose: 300.0 mg/kg/injection, schedule: Q01DX001 (ip), vehicle: other 90 % of control

CCCCSP(=S)(SCCCC)SCCCC
inactive: dose: 100.0 mg/kg/injection, schedule: Q01DX001 (ip), vehicle: Klucel (hydroxypropylcellulose) (HPC) 94 % of control | [4] 105 % of control | dose: 200.0 mg/kg/injection, schedule: Q01DX001 (ip), vehicle: Klucel (hydroxypropylcellulose) (HPC) 94 % of control | [5] 105 % of control | dose: 400.0 mg/kg/injection, schedule: Q01DX001 (ip), vehicle: Klucel (hydroxypropylcellulose) (HPC) 97 % of control | dose: 400.0 mg/kg/injection, schedule: Q01DX009 (ip), vehicle: saline with Tween-80 102 % of control

CCOCCNc1ccc(S(=O)(=O)c2ccc(N)cc2)cc1N
inactive: [1] 95 % of control | [2] 90 % of control | [3] 97 % of control

ClC1=C(Cl)C2(Cl)C3C4CC(CC4Cl)C3C1(Cl)C2(Cl)Cl (stereo not drawn)
inactive: dose: 75.0 mg/kg/injection, schedule: Q01DX001 (ip), vehicle: steriod suspending solution 93 % of control | dose: 150.0 mg/kg/injection, schedule: Q01DX001 (ip), vehicle: steriod suspending solution 90 % of control | dose: 300.0 mg/kg/injection, schedule: Q01DX001 (ip), vehicle: steriod suspending solution 98 % of control

Cc1ccc(C(=O)CCCCl)c(C)c1
inactive: [6] 99 % of control | [7] 94 % of control | [8] 96 % of control

CC(C)=Cc1ccccc1
inactive: [4] 98 % of control | [6] 95 % of control | [5] 93 % of control | [7] 87 % of control | [8] 94 % of control

O=S(=O)(CCCl)c1ccc(Br)cc1
inactive: dose: 100.0 mg/kg/injection, schedule: Q04DX002 (ip), vehicle: Klucel (hydroxypropylcellulose) (HPC) 101 % of control | dose: 200.0 mg/kg/injection, schedule: Q04DX002 (ip), vehicle: Klucel (hydroxypropylcellulose) (HPC) 97 % of control | dose: 400.0 mg/kg/injection, schedule: Q04DX002 (ip), vehicle: Klucel (hydroxypropylcellulose) (HPC) 101 % of control

CSC1CCCCC1O (stereo not drawn)
inactive: dose: 50.0 mg/kg/injection, schedule: Q01DX009 (ip), vehicle: saline with Tween-80 89 % of control | [4] 92 % of control | [5] 92 % of control

CC(C)(C)C(=O)CS(=O)(=O)C(Br)C(=O)C(C)(C)C (stereo not drawn)
inactive: dose: 100.0 mg/kg/injection, schedule: Q04DX003 (ip), vehicle: Klucel (hydroxypropylcellulose) (HPC) 100 % of control
